# Results taken from patent publication US20100292214A1, “Compounds with Antiparasitic Activity, Applications thereof to the Treatment of Infectious Diseases Caused by Apicomplexans” (commissariat a l'Energie Atomique, priority 2007, published 2010).
# Where a name gives a salt, the structure may show the parent alone. Read-outs that look alike come from different tables or passages of the source.
# Test system: asynchronous 3D7 chloroquine-sensitive P. falciparum infected red blood cells
# Assay: Labeled hypoxanthine incorporation assay (in vitro anti-malarial activity)
# Format: cell-based
# Details: read-out: IC50 assessed on Plasmodium Falciparum
# [1] = Plasmodium falciparum, 3D7, Erythrocyte, 3D7 chloroquine-sensitive strain, infected RBC, 48 h contact, [3H]-hypoxanthine incorporation, two independent experiments in duplicates
# [2] = Plasmodium falciparum, 3D7, Erythrocyte
SMILES,IC50 [1],other results
"COc1ccc(S(=O)(=O)N(c2ccccc2)C2CCN(C(=O)OC[C@H](Cc3ccccc3)N(Cc3ccccc3)Cc3ccccc3)CC2)cc1 [Compound 157, (S)-2-(dibenzylamino)-3-phenylpropyl 4-(N-phenyl-4-methoxyphenylsulfonamido)piperidine-1-carboxylate]",0.828 µM,
"O=C(OCCN(Cc1ccccc1)Cc1cccc2ccccc12)N1CCC(n2c(=O)[nH]c3ccccc32)CC1 [Compound 130, 2-(benzyl(naphthalen-1-ylmethyl)amino)ethyl 4-(2-oxo-2,3-dihydro-1H-benzo[d]imidazol-1-yl)piperidine-1-carboxylate hydrochloride]",3.87 µM,
"CCN(CC)CCCC(C)Nc1ccnc2cc(Cl)ccc12 (centres unmarked) [Chloroquine, reference compound]",,IC50 [2]: 0.0103 µM
"O=C(OC[C@H](Cc1ccccc1)N(Cc1ccccc1)Cc1ccccc1)N1CCC(N(c2ccccc2)S(=O)(=O)c2cccc3ccccc23)CC1 [Compound 162, (S)-2-(dibenzylamino)-3-phenylpropyl 4-(N-phenyl-naphthalen-1-ylsulfonamido)piperidine-1-carboxylate]",1.33 µM,
"C[C@@H](COC(=O)N1CCC(n2c(=O)n(S(=O)(=O)c3cccc4cccnc34)c3ccccc32)CC1)N(Cc1ccccc1)Cc1ccccc1 [Compound 60, (S)-2-(dibenzylamino)propyl 4-(2-oxo-3-(quinolin-8-ylsulfonyl)-2,3-dihydro-1H-benzo[d]imidazol-1-yl)piperidine-1-carboxylate]",0.78 µM,
"CC(C)(COC(=O)N1CCC(n2c(=O)[nH]c3ccccc32)CC1)N(Cc1ccccc1)Cc1ccccc1 [Compound 111, 2-(dibenzylamino)-2-methylpropyl 4-(1,2-dihydro-2-oxobenzo[d]imidazol-3-yl)piperidine-1-carboxylate]",2.28 µM,
"CC(C)(C)C(COC(=O)N1CCC(n2c(=O)[nH]c3ccccc32)CC1)N(Cc1ccccc1)Cc1ccccc1 (centres unmarked) [Compound 109, 2-(dibenzylamino)-3,3-dimethylbutyl 4-(1,2-dihydro-2-oxobenzo[d]imidazol-3-yl)piperidine-1-carboxylate]",2.4 µM,
"CCCc1ccc(S(=O)(=O)N(c2ccccc2)C2CCN(C(=O)OC[C@H](C)N(Cc3ccccc3)Cc3ccccc3)CC2)cc1 [Compound 154, (S)-2-(dibenzylamino)propyl 4-(N-phenyl-4-propylphenylsulfonamido)piperidine-1-carboxylate]",1.59 µM,
"C[C@@H](COC(=O)N1CCC(N(c2ccccc2)S(=O)(=O)c2ccc(C(F)(F)F)cc2)CC1)N(Cc1ccccc1)Cc1ccccc1 [Compound 158, (S)-2-(dibenzylamino)propyl 4-(N-phenyl-4-(trifluoromethyl)phenylsulfonamido)piperidine-1-carboxylate]",0.355 µM,
"C[C@@H](COC(=O)N1CCC(n2c(=O)[nH]c3ccccc32)CC1)N(Cc1ccccc1)Cc1ccc(Cl)cc1 [Compound 129, (S)-2-(benzyl(4-chlorobenzyl)amino)propyl 4-(2-oxo-2,3-dihydro-1H-benzo[d]imidazol-1-yl)piperidine-1-carboxylate hydrochloride]",3.63 µM,
"C[C@@H](COC(=O)N1CCC(n2c(=O)[nH]c3ccccc32)CC1)N(Cc1ccccc1)Cc1ccc(Br)cc1 [Compound 116, S)-2-(benzyl(4-bromobenzyl)amino)propyl 4-(2-oxo-2,3-dihydro-1H-benzo[d]imidazol-1-yl)piperidine-1-carboxylate hydrochloride]",,"IC50 (3D7 chloroquine-sensitive strain, infected RBC, 48 h contact, [3H]-hypoxanthine incorporation, two independent experiments in duplicates): 2.88 µM"
"O=C(OCCN(Cc1ccccc1)Cc1ccc(OCc2ccccc2)cc1)N1CCC(n2c(=O)[nH]c3ccccc32)CC1 [Compound 100, 2-(benzyl(4-(benzyloxy)benzyl)amino)ethyl 4-(2-oxo-2,3-dihydro-1H-benzo[d]imidazol-1-yl)piperidine-1-carboxylate]",3.15 µM,
"C[C@@H]1CC[C@H]2[C@@H](C)C(=O)O[C@@H]3O[C@@]4(C)CC[C@@H]1[C@]32OO4 [Artemisinine, reference compound]",0.0287 µM,
"O=C(OCCCN(CCOCc1ccccc1)Cc1ccccc1)N1CCC(n2c(=O)[nH]c3ccccc32)CC1 [Compound 143, 3-(benzyl(2-(benzyloxy)ethyl)amino)propyl 4-(2-oxo-2,3-dihydro-1H-benzo[d]imidazol-1-yl)piperidine-1-carboxylate hydrochloride]",4.27 µM,
"C[C@@H](COC(=O)N1CCC(n2c(=O)[nH]c3ccccc32)CC1)N(Cc1ccccc1)Cc1cccc(Oc2ccccc2)c1 [Compound 127, (S)-2-(benzyl(3-phenoxybenzyl)amino)propyl 4-(2-oxo-2,3-dihydro-1H-benzo[d]imidazol-1-yl)piperidine-1-carboxylate hydrochloride]",2.67 µM,
"C[C@@H](COC(=O)N1CCC(Nc2ccccc2Sc2ccc(Cl)cc2)CC1)N(Cc1ccccc1)Cc1ccccc1 [Compound 173, (S)-2-(dibenzylamino)propyl 4-(2-(4-chlorophenylthio)phenylamino)piperidine-1-carboxylate]",2.58 µM,
"Cc1cccc(C)c1NC1CCN(C(=O)OC[C@H](Cc2ccccc2)N(Cc2ccccc2)Cc2ccccc2)CC1 [Compound 174, (S)-2-(dibenzylamino)-3-phenylpropyl 4-(2,6-dimethylphenylamino)piperidine-1-carboxylate]",0.913 µM,
"O=C(OCCN(C/C=C/c1ccccc1)Cc1ccccc1)N1CCC(n2c(=O)[nH]c3ccccc32)CC1 [Compound 104, (E)-2-(benzyl(cinnamyl)amino)ethyl 4-(2-oxo-2,3-dihydro-1H-benzo[d]imidazol-1-yl)piperidine-1-carboxylate]",4.97 µM,
"C[C@@H](COC(=O)N1CCC(N(c2ccccc2)S(=O)(=O)c2cccc3ccccc23)CC1)N(Cc1ccccc1)Cc1ccccc1 [Compound 161, (S)-2-(dibenzylamino)propyl 4-(N-phenyl-naphthalen-1-ylsulfonamido)piperidine-1-carboxylate]",0.29 µM,
"O=C(OCCCN(Cc1ccccc1)Cc1cccnc1)N1CCC(n2c(=O)[nH]c3ccccc32)CC1 [Compound 134, 3-(benzyl(pyridin-3-ylmethyl)amino)propyl 4-(2-oxo-2,3-dihydro-1H-benzo[d]imidazol-1-yl)piperidine-1-carboxylate hydrochloride]",1.29 µM,
"CC(C)(C)OC(=O)N(Cc1ccccc1)[C@H](COC(=O)N1CCC(n2c(=O)[nH]c3ccccc32)CC1)Cc1ccccc1 [Compound 106, (S)-2-(benzyl(tert-butoxycarbonyl)amino)-3-phenylpropyl 4-(2-oxo-2,3-dihydro-1H-benzo[d]imidazol-1-yl)piperidine-1-carboxylate]",0.828 µM,
"C[C@H]1[C@H](OC(=O)CCC(=O)O)O[C@@H]2O[C@@]3(C)CC[C@H]4[C@H](C)CC[C@@H]1[C@@]24OO3 [Artesunate, reference compound]",,IC50 [2]: 0.0097 µM

# The remaining compounds from weak to strong by IC50 [1], led by results:
IC50 [1],SMILES,other results
7.47 µM,"C[C@@H](COC(=O)N1CCC(n2c(=O)[nH]c3ccccc32)CC1)N(Cc1ccccc1)Cc1ccco1 [Compound 102, (S)-2-(benzyl(furan-2-ylmethyl)amino)propyl 4-(2-oxo-2,3-dihydro-1H-benzo[d]imidazol-1-yl)piperidine-1-carboxylate]",
4.66 µM,"COc1ccccc1CN(CCOC(=O)N1CCC(n2c(=O)[nH]c3ccccc32)CC1)Cc1ccccc1 [Compound 151, 2-(benzyl(2-methoxybenzyl)amino)ethyl 4-(2-oxo-2,3-dihydro-1H-benzo[d]imidazol-1-yl)piperidine-1-carboxylate]",
4.43 µM,"C[C@@H](COC(=O)N1CCC(N(c2ccccc2)S(=O)(=O)c2ccc3ccccc3c2)CC1)N(Cc1ccccc1)Cc1ccccc1 [Compound 171, (S)-2-(dibenzylamino)propyl 4-(N-phenyl-naphthalen-2-ylsulfonamido)piperidine-1-carboxylate]",
3.69 µM,"C[C@@H](COC(=O)N1CCC(N(C)c2ccccc2)CC1)N(Cc1ccccc1)Cc1ccccc1 [Compound 166, (S)-2-(dibenzylamino)propyl 4-(N-methyl-N-phenylamino)piperidine-1-carboxylate]",
3.57 µM,"O=C(OCCN(Cc1ccccc1)Cc1cccc(OCc2ccccc2)c1)N1CCC(n2c(=O)[nH]c3ccccc32)CC1 [Compound 103, 2-(benzyl(3-(benzyloxy)benzyl)amino)ethyl 4-(2-oxo-2,3-dihydro-1H-benzo[d]imidazol-1-yl)piperidine-1-carboxylate]",
3.31 µM,"O=C(OCCN(Cc1ccccc1)Cc1cccc(Cl)c1)N1CCC(n2c(=O)[nH]c3ccccc32)CC1 [Compound 124, 2-(benzyl(3-chlorobenzyl)amino)ethyl 4-(2-oxo-2,3-dihydro-1H-benzo[d]imidazol-1-yl)piperidine-1-carboxylate hydrochloride]",
2.81 µM,"CC(C)[C@@H](COC(=O)N1CCC(n2c(=O)[nH]c3ccccc32)CC1)N(Cc1ccccc1)Cc1ccccc1 [Compound 107, (S)-2-(dibenzylamino)-3-methylbutyl 4-(1,2-dihydro-2-oxobenzo[d]imidazol-3-yl)piperidine-1-carboxylate]",
2.45 µM,"C[C@@H](COC(=O)N1CCC(n2c(=O)[nH]c3ccccc32)CC1)N(Cc1ccccc1)Cc1ccc([N+](=O)[O-])cc1 [Compound 113, (S)-2-(benzyl(4-nitrobenzyl)amino)propyl 4-(2-oxo-2,3-dihydro-1H-benzo[d]imidazol-1-yl)piperidine-1-carboxylate]",
2.2 µM,"C[C@@H](COC(=O)N1CCC(N(c2ccccc2)S(=O)(=O)c2ccc(-c3ccccc3)cc2)CC1)N(Cc1ccccc1)Cc1ccccc1 [Compound 170, (S)-2-(dibenzylamino)propyl 4-(N-phenyl-biphenyl-4-sulfonamido)piperidine-1-carboxylate]",
1.26 µM,"C[C@@H](COC(=O)N1CCC(Nc2ccccc2S(=O)(=O)c2ccccc2)CC1)N(Cc1ccccc1)Cc1ccccc1 [Compound 164, (S)-2-(dibenzylamino)propyl 4-(2-(phenylsulfonyl)phenylamino)piperidine-1-carboxylate]",
